Experimental data reported in ChEMBL document CHEMBL3091293, “The synthesis and biodistribution of [(11)C]metformin as a PET probe to study hepatobiliary transport mediated by the multi-drug and toxin extrusion transporter 1 (MATE1) in vivo” (Bioorg Med Chem, 2013).

Experiments:
Format in all cases: ADME, organism-based
Liver [1] = test: Drug uptake in liver of ddY mouse at 127 +/- 35 MBq/kg, iv measured up to 6 to 7 mins by microPET image analysis in presence of MATE1 inhibitor pyrimethamine; conditions: in vivo
[2] = Drug uptake in urinary bladder of ddY mouse at 127 +/- 35 MBq/kg, iv measured up to 4.5 mins by microPET image analysis; conditions: in vivo, 0.075 h
Mus musculus [3] = test: Biodistribution in remaining body parts of ddY mouse at 5.6 +/- 2.1 MBq, iv measured per gram of tissue at 60 mins by gamma-ray counting analysis; conditions: in vivo, 1 h
Mus musculus [4] = test: Biodistribution in remaining body parts of ddY mouse at 5.6 +/- 2.1 MBq, iv measured per gram of tissue at 35 mins by gamma-ray counting analysis; conditions: in vivo
Mus musculus [5] = test: Biodistribution in remaining body parts of ddY mouse at 5.6 +/- 2.1 MBq, iv measured per gram of tissue at 15 mins by gamma-ray counting analysis; conditions: in vivo, 0.25 h
Mus musculus [6] = test: Biodistribution in urinary bladder of ddY mouse at 14.6 +/- 2.1 MBq, iv measured per gram of tissue at 27.5 mins by PET image analysis; conditions: in vivo
Kidney [7] = test: Biodistribution in kidney of ddY mouse at 14.6 +/- 2.1 MBq, iv measured per gram of tissue at 27.5 mins by PET image analysis; conditions: in vivo
Liver [8] = test: Biodistribution in liver of ddY mouse at 14.6 +/- 2.1 MBq, iv measured per gram of tissue at 14 mins by PET image analysis; conditions: in vivo
Mus musculus [9] = test: Biodistribution in remaining body parts of ddY mouse at 14.6 +/- 2.1 MBq, iv measured per gram of tissue at 5 mins by PET image analysis; conditions: in vivo
Mus musculus [10] = test: Biodistribution in urinary bladder of ddY mouse at 14.6 +/- 2.1 MBq, iv measured per gram of tissue at 5 mins by PET image analysis; conditions: in vivo
Kidney [11] = test: Biodistribution in kidney of ddY mouse at 14.6 +/- 2.1 MBq, iv measured per gram of tissue at 5 mins by PET image analysis; conditions: in vivo
Liver [12] = test: Biodistribution in liver of ddY mouse at 14.6 +/- 2.1 MBq, iv measured per gram of tissue at 5 mins by PET image analysis; conditions: in vivo
Pancreas [13] = test: Biodistribution in pancreas of ddY mouse at 5.6 +/- 2.1 MBq, iv measured per gram of tissue at 90 mins by gamma-ray counting analysis; conditions: in vivo, 1.5 h
Mus musculus [14] = test: Biodistribution in stomach wall of ddY mouse at 5.6 +/- 2.1 MBq, iv measured per gram of tissue at 90 mins by gamma-ray counting analysis; conditions: in vivo, 1.5 h
Spleen [15] = test: Biodistribution in spleen of ddY mouse at 5.6 +/- 2.1 MBq, iv measured per gram of tissue at 90 mins by gamma-ray counting analysis; conditions: in vivo, 1.5 h
Kidney [16] = test: Biodistribution in kidney of ddY mouse at 5.6 +/- 2.1 MBq, iv measured per gram of tissue at 90 mins by gamma-ray counting analysis; conditions: in vivo, 1.5 h
Liver [17] = test: Biodistribution in liver of ddY mouse at 5.6 +/- 2.1 MBq, iv measured per gram of tissue at 90 mins by gamma-ray counting analysis; conditions: in vivo, 1.5 h
Pancreas [18] = test: Biodistribution in pancreas of ddY mouse at 5.6 +/- 2.1 MBq, iv measured per gram of tissue at 60 mins by gamma-ray counting analysis; conditions: in vivo, 1 h
Lung [19] = test: Biodistribution in lung of ddY mouse at 5.6 +/- 2.1 MBq, iv measured per gram of tissue at 60 mins by gamma-ray counting analysis; conditions: in vivo, 1 h
Liver [20] = test: Biodistribution in liver of ddY mouse at 5.6 +/- 2.1 MBq, iv measured per gram of tissue at 60 mins by gamma-ray counting analysis; conditions: in vivo, 1 h
Mus musculus [21] = test: Biodistribution in large intestine wall of ddY mouse at 5.6 +/- 2.1 MBq, iv measured per gram of tissue at 45 mins by gamma-ray counting analysis; conditions: in vivo, 0.75 h
Mus musculus [22] = test: Biodistribution in small intestine wall of ddY mouse at 5.6 +/- 2.1 MBq, iv measured per gram of tissue at 45 mins by gamma-ray counting analysis; conditions: in vivo, 0.75 h
Lung [23] = test: Biodistribution in lung of ddY mouse at 5.6 +/- 2.1 MBq, iv measured per gram of tissue at 45 mins by gamma-ray counting analysis; conditions: in vivo, 0.75 h
Spleen [24] = test: Biodistribution in spleen of ddY mouse at 5.6 +/- 2.1 MBq, iv measured per gram of tissue at 45 mins by gamma-ray counting analysis; conditions: in vivo, 0.75 h
Mus musculus [25] = test: Biodistribution in urinary bladder/urine of ddY mouse at 5.6 +/- 2.1 MBq, iv measured per gram of tissue at 35 mins by gamma-ray counting analysis; conditions: in vivo
Liver [26] = test: Biodistribution in liver of ddY mouse at 5.6 +/- 2.1 MBq, iv measured per gram of tissue at 35 mins by gamma-ray counting analysis; conditions: in vivo
Mus musculus [27] = test: Biodistribution in urinary bladder/urine of ddY mouse at 5.6 +/- 2.1 MBq, iv measured per gram of tissue at 30 mins by gamma-ray counting analysis; conditions: in vivo, 0.5 h
Thyroid gland [28] = test: Biodistribution in thyroid of ddY mouse at 5.6 +/- 2.1 MBq, iv measured per gram of tissue at 30 mins by gamma-ray counting analysis; conditions: in vivo, 0.5 h
Mus musculus [29] = test: Biodistribution in stomach wall of ddY mouse at 5.6 +/- 2.1 MBq, iv measured per gram of tissue at 30 mins by gamma-ray counting analysis; conditions: in vivo, 0.5 h
Mus musculus [30] = test: Biodistribution in heart wall of ddY mouse at 5.6 +/- 2.1 MBq, iv measured per gram of tissue at 30 mins by gamma-ray counting analysis; conditions: in vivo, 0.5 h
Kidney [31] = test: Biodistribution in kidney of ddY mouse at 5.6 +/- 2.1 MBq, iv measured per gram of tissue at 30 mins by gamma-ray counting analysis; conditions: in vivo, 0.5 h
Pancreas [32] = test: Biodistribution in pancreas of ddY mouse at 5.6 +/- 2.1 MBq, iv measured per gram of tissue at 15 mins by gamma-ray counting analysis; conditions: in vivo, 0.25 h
Thyroid gland [33] = test: Biodistribution in thyroid of ddY mouse at 5.6 +/- 2.1 MBq, iv measured per gram of tissue at 15 mins by gamma-ray counting analysis; conditions: in vivo, 0.25 h
Mus musculus [34] = test: Biodistribution in small intestine wall of ddY mouse at 5.6 +/- 2.1 MBq, iv measured per gram of tissue at 15 mins by gamma-ray counting analysis; conditions: in vivo, 0.25 h
Mus musculus [35] = test: Biodistribution in stomach wall of ddY mouse at 5.6 +/- 2.1 MBq, iv measured per gram of tissue at 15 mins by gamma-ray counting analysis; conditions: in vivo, 0.25 h
Lung [36] = test: Biodistribution in lung of ddY mouse at 5.6 +/- 2.1 MBq, iv measured per gram of tissue at 15 mins by gamma-ray counting analysis; conditions: in vivo, 0.25 h
Kidney [37] = test: Biodistribution in kidney of ddY mouse at 5.6 +/- 2.1 MBq, iv measured per gram of tissue at 15 mins by gamma-ray counting analysis; conditions: in vivo, 0.25 h
Liver [38] = test: Biodistribution in liver of ddY mouse at 5.6 +/- 2.1 MBq, iv measured per gram of tissue at 15 mins by gamma-ray counting analysis; conditions: in vivo, 0.25 h

In the case of `CN([11CH3])C(=N)NC(=N)N`, the Drug uptake (Liver [1]) is reported as “Active”, the Drug uptake [2] is reported as “Active” and the Drug uptake (Mus musculus [3]) is reported as 23.827 %ID. The Drug uptake (Mus musculus [4]) was 20.55 %ID, the Drug uptake (Mus musculus [5]) was 54.581 %ID and the Drug uptake (Mus musculus [6]) was 66.041 %ID. For the same compound, the Drug uptake (Kidney [7]) was 4.394 %ID, the Drug uptake (Liver [8]) was 1.796 %ID and the Drug uptake (Mus musculus [9]) was 51.908 %ID. For the same compound, the Drug uptake (Mus musculus [10]) was 37.19 %ID, the Drug uptake (Kidney [11]) was 6.576 %ID and the Drug uptake (Liver [12]) was 4.327 %ID. It also gave a Drug uptake (Pancreas [13]) of 0.339 %ID, a Drug uptake (Mus musculus [14]) of 0.14 %ID and a Drug uptake (Spleen [15]) of 0.087 %ID. It also gave a Drug uptake (Kidney [16]) of 0.236 %ID, a Drug uptake (Liver [17]) of 1.288 %ID and a Drug uptake (Pancreas [18]) of 0.281 %ID. It also gave a Drug uptake (Lung [19]) of 0.136 %ID, a Drug uptake (Liver [20]) of 1.631 %ID and a Drug uptake (Mus musculus [21]) of 0.208 %ID. It also gave a Drug uptake (Mus musculus [22]) of 2.128 %ID, a Drug uptake (Lung [23]) of 0.135 %ID and a Drug uptake (Spleen [24]) of 0.123 %ID. The Drug uptake (Mus musculus [25]) was 74.695 %ID, the Drug uptake (Liver [26]) was 1.478 %ID and the Drug uptake (Mus musculus [27]) was 73.314 %ID. It also gave a Drug uptake (Thyroid gland [28]) of 0.009 %ID, a Drug uptake (Mus musculus [29]) of 0.173 %ID and a Drug uptake (Mus musculus [30]) of 0.044 %ID. The Drug uptake (Kidney [31]) was 1.111 %ID, the Drug uptake (Pancreas [32]) was 0.295 %ID and the Drug uptake (Thyroid gland [33]) was 0.008 %ID. For the same compound, the Drug uptake (Mus musculus [34]) was 3.409 %ID, the Drug uptake (Mus musculus [35]) was 0.347 %ID and the Drug uptake (Lung [36]) was 0.254 %ID. For the same compound, the Drug uptake (Kidney [37]) was 1.181 %ID and the Drug uptake (Liver [38]) was 3.817 %ID.
